From patent US12150981B2, “Chimeric antigen receptor-expressing T cells as anti-cancer therapeutics” (Purdue Research Foundation, priority 2012, dated 2024)

How the values were obtained:
FR+ L1210A cells = assay: 51Chromium release cytotoxicity assay of anti-FITC CAR-expressing T cells against L1210A cells; format: cell-based, mouse; details: 70 nM conjugate, effector:target 20:1, 4-10 hours
Protocol: In order to explore whether CAR-expressing T cells can kill cancer cells, ^51Chromium release assays were conducted. In this assay, cancer cells are labeled with ^51Cr. When cancer cells are lysed, ^51Cr would be released from cancer cells to supernatant. By measuring ^51Cr in supernatant, the number of cancer cells killed can be determined.
First, target cancer cells L1210A were incubated in 50 μL growth medium containing 50 μCi ^51Chromium to get labeled. After washing with PBS×3, L1210A cells were resuspended and incubated at 37° C. for 1 hour in the growth medium containing 70 nM FITC-Folate conjugate or FITC-(PEG)12-Folate conjugate. After washing away excess FITC conjugates, 5×10^3 target cancer cells were added in each well of 96-well plates. […] After incubation for 4-10 hours, 20 μL aliquots of cell-free supernatant were harvested and ^51Cr in the supernatants was measured with a scintillation counter or a γ-counter.
Percent specific cytolysis was calculated using following formula: % cytolysis=(Experimental ^51Cr release−control ^51Cr release)/(Maximum ^51Cr release−control ^51Cr release)×100
Control wells contained only target cancer cells, effector T cells were never added in these wells. Maximum ^51Cr release was determined by measuring ^51Cr release from labeled target cells treated with 2.5% SDS to lyse all cells.

[1] = target: T1, folate receptor (FR) on KB cells (Homo sapiens, UniProt P15328); assay: Binding of FITC-Folate conjugates to FR positive KB cancer cells, fluorescence/confocal microscopy
T1 construct: endogenous in cells; host or cells: KB cells
T1 sequence (P15328 25-234): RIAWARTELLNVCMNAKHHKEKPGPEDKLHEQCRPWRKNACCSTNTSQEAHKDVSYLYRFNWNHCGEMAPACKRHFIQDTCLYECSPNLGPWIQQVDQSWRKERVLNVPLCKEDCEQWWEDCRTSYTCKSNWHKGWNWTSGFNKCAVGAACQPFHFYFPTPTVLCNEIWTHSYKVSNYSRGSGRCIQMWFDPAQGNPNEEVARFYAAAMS
Protocol: (§1) The ability of the FITC-Folate and FITC-(PEG)12-Folate conjugates to bind folate receptor (FR) positive cancer cells was next investigated. FR positive cells lines L1210A (Mouse lymphocytic leukemia) and KB (Mouth epidermal carcinoma), which are FR positive cell lines, were used to test the binding affinity of the FITC-Folate conjugates. Briefly, 3-4×10^4 cancer cells were prepared to perform binding affinity assays with FITC-Folate and FITC-(PEG)12-Folate conjugates. With two different concentrations (e.g. 20 nM, 70 nM), the two FITC-Folate conjugates were incubated with cancer cells at room temperature for 1 hour. Since both FITC-Folate conjugates have fluorescence, the binding ability of FITC-Folate conjugates to cancer cells can be detected by florescence microscopy. After two washes with 1× phosphate buffered saline (PBS) to remove all unbound compound, the cancer cells were observed by confocal microscope. In order to specify whether FITC-Folate conjugates bind to cancer cells via FR on the surface of cancer cells, Folate Acid was also incubated with cancer cells as a competition compound. […] As shown in competition panel, addition of 50× excess folate acid blocked FITC-Folate binding with these cancer cells, which indicates the specific binding is between folate acid and FR on cell surface.

[2] = test system: folate receptor (FR) on L1210A cells; assay: Binding of FITC-Folate conjugates to FR positive L1210A cancer cells, fluorescence/confocal microscopy; set-up: species or system mouse
Protocol: as §1

FR+ KB cells = assay: 51Chromium release cytotoxicity assay of anti-FITC CAR-expressing T cells against KB cells; format: cell-based, human; details: 70 nM conjugate, effector:target 20:1, 4-10 hours
[3] = test system: anti-FITC scFv in CAR4-1BBZ on transduced T cells; assay: Binding of FITC-Folate conjugates to CAR4-1BBZ transduced T cells, confocal microscopy; set-up: species or system mouse
Protocol: To examine the ability of the transduced T cells containing CAR4-1BBZ to bind the FITC-Folate conjugates, binding assays with the FITC-Folate conjugate and the FITC-(PEG)12-Folate conjugate were performed. Since the excitation wavelength of FITC in the FITC-Folate conjugates overlapped with copGFP in CAR4-1BB transduced T cells, it was difficult to distinguish between FITC binding and copGFP expression. Therefore, an anti-Folate Acid (FA) monoclonal antibody and a fluorephore (excitation 640 nm)-labeled anti-mouse IgG antibody were utilized.
First, the transduced T cells were incubated with FITC-Folate or FITC-(PEG)12-Folate conjugates at room temperature for 1 hour. After washing with 1×PBS, transduced T cells were incubated with anti-FA monoclonal antibody (1:15 dilution) for 1 hour. After another washing with 1×PBS, transduced T cells further were incubated with fluorophore (excitation 640 nm) labeled anti-mouse IgG antibody (1:50 dilution). Finally, unbound antibodies were washed away and a confocal microscope was used to confirm the FITC-Folate and FITC-(PEG)12-Folate conjugates binding ability. All data was analyzed by Olympus Fluoview software. […] Simultaneously, binding of FITC-Folate and FITC-(PEG)12-Folate conjugates (arrows) were also detected on the CAR4-1BBZ transduced T cells.

[4] = test system: PSMA-positive human prostate cancer cells; details: DUPA-(99m)Tc, ref [8]; cited from earlier work
[5] = 20 nM, 70 nM, room temperature 1 hour

binding to KB cells via FR [1, 5] | binding to KB cells in the presence of competitor ([1]; 50× excess folate acid) | cellular localization in KB cells (internalization) ([1]; FIG. 3A, 3C) | SMILES | cancer cell cytolysis by CAR-expressing T cells in the presence of conjugate (FR+ L1210A cells) [%] | binding to L1210A cells via FR [2, 5] | binding to L1210A cells in the presence of competitor ([2]; 50× excess folate acid) | cancer cell cytolysis by CAR-expressing T cells in the presence of conjugate (FR+ KB cells) [%] | binding to non-transduced T cells ([3]; non-transduced T cells, same protocol) | binding to anti-FITC in CAR4-1BBZ transduced T cells ([3]; room temperature 1 hour, detected with anti-FA antibody and labeled anti-mouse IgG) | Kd [4] [nM]
can bind | blocked | internalized into KB cell cytoplasm | Nc1nc2ncc(CNc3ccc(C(=O)N[C@@H](CCC(=O)NCCNC(=S)Nc4ccc(-c5c6ccc(=O)cc-6oc6cc(O)ccc56)c(C(=O)O)c4)C(=O)O)cc3)nc2c(=O)[nH]1 (single isomer, unassigned) [FITC-Folate] | ~29 | can bind | blocked | ~18 | not to non-transduced T cells | successfully bound | –
– | – | – | O=C(O)CCC(NC(=O)NC(CCC(=O)O)C(=O)O)C(=O)O (stereo not shown) [DUPA, 2-[3-(1,3-dicarboxypropyl)ureido] pentanedioic acid] | – | – | – | – | – | – | 14
